Reference: patent publication US20200399222A1, “PICOLINAMIDES AS FUNGICIDES” (Dow AgroSciences LLC, priority 2018, published 2020)
Where two headings read alike, the source gives them in different places.

Key:
Zymoseptoria tritici = test: Leaf blotch of wheat (SEPTTR) disease control on wheat seedlings; format: in vivo; details: High volume application, 100 ppm
Method: Example A: Evaluation of Fungicidal Activity: Leaf Blotch of Wheat (Zymoseptoria tritici; Bayer Code […]) Technical grades of materials were dissolved in acetone, which were then mixed with nine volumes of water containing 110 ppm Triton X-100. The fungicide solutions were applied onto wheat seedlings using an automated booth sprayer to run-off. All sprayed plants were allowed to air dry prior to further handling. All fungicides were evaluated using the aforementioned method for their activity vs. all target diseases, unless stated otherwise. Wheat leaf blotch and brown rust activity were also evaluated using track spray applications, in which case the fungicides were formulated as EC formulations, containing 0.1% Trycol 5941 in the spray solutions. Wheat plants (variety Yuma) were grown from seed in a greenhouse in 50% mineral soil/50% soil-less Metro mix until the first leaf was fully emerged, with 7-10 seedlings per pot. These plants were inoculated with an aqueous spore suspension of Zymoseptoria tritici either prior to or after fungicide treatments. After inoculation the plants were kept in 100% relative humidity (one day in a dark dew chamber followed by two to three days in a lighted dew chamber at 20° C.) to permit spores to germinate and infect the leaf. The plants were then transferred to a greenhouse set at 20° C. for disease to develop. When disease symptoms were fully expressed on the 1st leaves of untreated plants, infection levels were assessed on a scale of 0 to 100 percent disease severity. Percent disease control was calculated using the ratio of disease severity on treated plants relative to untreated plants.

Puccinia triticina = test: Wheat brown rust (PUCCRT) disease control on wheat seedlings; format: in vivo; details: High volume application, 100 ppm
Method: Technical grades of materials were dissolved in acetone, which were then mixed with nine volumes of water containing 110 ppm Triton X-100. The fungicide solutions were applied onto wheat seedlings using an automated booth sprayer to run-off. All sprayed plants were allowed to air dry prior to further handling. All fungicides were evaluated using the aforementioned method for their activity vs. all target diseases, unless stated otherwise. Wheat leaf blotch and brown rust activity were also evaluated using track spray applications, in which case the fungicides were formulated as EC formulations, containing 0.1% Trycol 5941 in the spray solutions. Example B: Evaluation of Fungicidal Activity: Wheat Brown Rust (Puccinia triticina; Synonym: Puccinia recondita f. sp. tritici; Bayer Code PUCCRT) Wheat plants (variety Yuma) were grown from seed in a greenhouse in 50% mineral soil/50% soil-less Metro mix until the first leaf was fully emerged, with 7-10 seedlings per pot. These plants were inoculated with an aqueous spore suspension of Puccinia triticina either prior to or after fungicide treatments. After inoculation the plants were kept in a dark dew room at 22° C. with 100% relative humidity overnight to permit spores to germinate and infect the leaf. The plants were then transferred to a greenhouse set at 24° C. for disease to develop. Fungicide formulation, application and disease assessment followed the procedures as described in the Example A.

[1] = 24 h, 1 Day Protectant, read-out: SEPTTR disease control rating, 1DP
[2] = 72 h, 3 Day Curative, read-out: SEPTTR disease control rating, 3DC
[3] = 24 h, 1 Day Protectant, read-out: PUCCRT disease control rating, 1DP
[4] = 72 h, 3 Day Curative, read-out: PUCCRT disease control rating, 3DC

| SMILES | pest or weed control at 100 ppm (Zymoseptoria tritici; [1]) | pest or weed control at 100 ppm (Zymoseptoria tritici; [2]) | pest or weed control at 100 ppm (Puccinia triticina; [3]) | pest or weed control at 100 ppm (Puccinia triticina; [4]) |
| --- | --- | --- | --- | --- |
| COc1ccnc(C(=O)N[C@@H](C)C(=O)O[C@@H](C)[C@@H](C)c2ccc(C)cc2C)c1O [Example 116] | < 80% | > 80% | > 80% | > 80% |
| COc1ccnc(C(=O)N[C@@H](C)C(=O)O[C@H](C)[C@H](C)c2ccc(C)cc2C)c1O [Example 117] | < 80% | < 80% | < 80% | < 80% |
| COc1ccnc(C(=O)NCC(=O)O[C@@H](C)[C@@H](C)c2ccc(F)cc2C)c1O [Example 118] | < 0% | < 80% | > 80% | > 80% |
| COc1ccnc(C(=O)NCC(=O)O[C@@H](C)[C@H](C)c2ccc(F)cc2C)c1O [Example 119] | < 0% | < 80% | > 80% | < 80% |
| COc1ccnc(C(=O)NCC(=O)O[C@@H](C)[C@H](C)c2ccccc2C)c1O [Example 120] | < 0% | < 80% | < 80% | < 80% |
| COc1ccnc(C(=O)NCC(=O)O[C@@H](C)[C@@H](C)c2ccc(F)cc2)c1O [Example 121] | < 0% | < 80% | > 80% | > 80% |
| COc1ccc([C@H](C)[C@H](C)OC(=O)CNC(=O)c2nccc(OC)c2O)c(C)c1 [Example 122] | < 80% | < 80% | > 80% | > 80% |
| COc1ccnc(C(=O)NCC(=O)O[C@H](C)[C@H](C)c2ccc(F)cc2C)c1O [Example 123] | < 0% | < 80% | > 80% | < 80% |
| COc1ccnc(C(=O)NCC(=O)O[C@H](C)[C@@H](C)c2ccc(F)cc2C)c1O [Example 124] | < 0% | < 80% | < 80% | < 0% |
| COc1ccnc(C(=O)NCC(=O)O[C@H](C)[C@@H](C)c2ccccc2C)c1O [Example 125] | < 0% | < 80% | < 80% | < 0% |
| COc1ccnc(C(=O)NCC(=O)O[C@H](C)[C@H](C)c2ccc(F)cc2)c1O [Example 126] | < 0% | < 80% | > 80% | < 80% |
| COc1ccc([C@@H](C)[C@@H](C)OC(=O)CNC(=O)c2nccc(OC)c2O)c(C)c1 [Example 127] | < 0% | < 80% | < 80% | < 80% |
| COc1ccnc(C(=O)N[C@@H](C)C(=O)O[C@@H](C)[C@H](C)c2ccc(F)cc2C)c1O [Example 129] | < 80% | < 80% | > 80% | < 80% |
| COc1ccnc(C(=O)N[C@@H](C)C(=O)O[C@@H](C)[C@H](C)c2ccccc2C)c1O [Example 130] | < 80% | < 80% | > 80% | > 80% |
| COc1ccnc(C(=O)N[C@@H](C)C(=O)O[C@@H](C)[C@@H](C)c2ccc(F)cc2)c1O [Example 131] | < 80% | < 80% | > 80% | > 80% |
| COc1ccc([C@H](C)[C@H](C)OC(=O)[C@H](C)NC(=O)c2nccc(OC)c2O)c(C)c1 [Example 132] | > 80% | < 80% | > 80% | > 80% |

| SMILES | pest or weed control at 100 ppm (Zymoseptoria tritici; [1]) | pest or weed control at 100 ppm (Zymoseptoria tritici; [2]) | pest or weed control at 100 ppm (Puccinia triticina; [3]) | pest or weed control at 100 ppm (Puccinia triticina; [4]) |
| --- | --- | --- | --- | --- |
| COc1ccnc(C(=O)N[C@@H](C)C(=O)O[C@H](C)[C@H](C)c2ccc(F)cc2C)c1O [Example 133] | < 80% | < 80% | > 80% | < 80% |
| COc1ccnc(C(=O)N[C@@H](C)C(=O)O[C@H](C)[C@@H](C)c2ccc(F)cc2C)c1O [Example 134] | < 80% | < 80% | < 80% | < 80% |
| COc1ccnc(C(=O)N[C@@H](C)C(=O)O[C@H](C)[C@@H](C)c2ccccc2C)c1O [Example 135] | < 80% | < 80% | < 80% | < 80% |
| COc1ccnc(C(=O)N[C@@H](C)C(=O)O[C@H](C)[C@H](C)c2ccc(F)cc2)c1O [Example 136] | < 80% | < 80% | > 80% | < 80% |
| COc1ccc([C@@H](C)[C@@H](C)OC(=O)[C@H](C)NC(=O)c2nccc(OC)c2O)c(C)c1 [Example 137] | < 80% | < 80% | > 80% | < 80% |
| COc1ccnc(C(=O)N[C@H](C(=O)O[C@@H](C)[C@@H](C)c2ccc(F)cc2C)C(C)C)c1O [Example 138] | > 80% | < 80% | > 80% | > 80% |
| COc1ccnc(C(=O)N[C@H](C(=O)O[C@@H](C)[C@H](C)c2ccc(F)cc2C)C(C)C)c1O [Example 139] | < 80% | < 80% | < 80% | < 0% |
| COc1ccnc(C(=O)N[C@H](C(=O)O[C@@H](C)[C@H](C)c2ccccc2C)C(C)C)c1O [Example 140] | < 80% | < 80% | > 80% | < 80% |
| COc1ccnc(C(=O)N[C@H](C(=O)O[C@@H](C)[C@@H](C)c2ccc(F)cc2)C(C)C)c1O [Example 141] | > 80% | < 80% | > 80% | < 80% |
| COc1ccc([C@H](C)[C@H](C)OC(=O)[C@@H](NC(=O)c2nccc(OC)c2O)C(C)C)c(C)c1 [Example 142] | > 80% | < 80% | > 80% | > 80% |
| COc1ccnc(C(=O)N[C@H](C(=O)O[C@H](C)[C@H](C)c2ccc(F)cc2C)C(C)C)c1O [Example 143] | < 80% | < 80% | > 80% | < 0% |
| COc1ccnc(C(=O)N[C@H](C(=O)O[C@H](C)[C@@H](C)c2ccc(F)cc2C)C(C)C)c1O [Example 144] | < 80% | < 80% | < 0% | < 80% |
| COc1ccnc(C(=O)N[C@H](C(=O)O[C@H](C)[C@@H](C)c2ccccc2C)C(C)C)c1O [Example 145] | < 80% | < 80% | < 80% | < 80% |
| COc1ccnc(C(=O)N[C@H](C(=O)O[C@H](C)[C@H](C)c2ccc(F)cc2)C(C)C)c1O [Example 146] | > 80% | < 80% | > 80% | < 80% |
| COc1ccc([C@@H](C)[C@@H](C)OC(=O)[C@@H](NC(=O)c2nccc(OC)c2O)C(C)C)c(C)c1 [Example 147] | > 80% | < 80% | > 80% | < 80% |
| COc1ccnc(C(=O)N[C@H](C)C(=O)O[C@@H](C)[C@@H](C)c2ccc(F)cc2C)c1O [Example 148] | > 80% | < 80% | > 80% | < 80% |
